Source: patent US8497285B2, “Therapy of autoimmune colitis using a TIP60 inhibitor” (The Trustees Of The University Of Pennsylvania, priority 2010, dated 2013)
Values belong to the compound of their own block, whether it stands above or below them.

Columns and labels:
[1] = test system: Treg suppression of T cell proliferation; experiment: Treg suppression assay (CFSE T cell proliferation, 3 days, varying Treg:T cell ratios); assay type: cell-based; conditions: for suppression of Treg in vitro: 500x dilution of 10 mM, 20 micromolar, FIG. 10; for T cell proliferation (percentage of proliferated cells): Treg:Teff=1:1
Description: FIG. 8. are flow cytometry dataplots showing the enhancement of TIP60 inhibitor B7 suppression of Treg in vitro. Individual peaks reflect number of cells divisions under the standard test conditions (3 days), where the cell populations are dyed with CFSE (carboxyfluorescen diacetate, succimidyl ester). FIG. 8A are the data for DMSO without B7; FIG. 8B are the data for B7-1000×; FIG. 8C are the data for B7-4000×; and FIG. 8D are the data for B7-8000. In each case, the 1000×/4000×/8000× refers to the dilution factor of the B7, from an original 10 mM solution of B7; e.g, 1000× represents a solution diluted by a factor of 1000, so as to result in a 10 micromolar solution. The numbers in the upper left corner of the plot (e.g., 88, 81, 74, 65, and 37 of FIG. 8A) refer to the measured percentage of proliferated cells.
FIG. 10. are flow cytometry dataplots showing the enhancement of TIP60 inhibitors B7 suppression of Treg in vitro. FIG. 10A are the data for DMSO without any B7-type inhibitor; FIG. 10B are the data for B7-500×; FIG. 10C are the data for B7A-500×; FIG. 10D are the data for B7B-500; and FIG. 10D are the data for B7C-500×. In each case, the 500× refers to the dilution factor of the B7/B7A/B7B/B7C, from an original 10 mM solution of the compound; e.g, 500× represents a solution diluted by a factor of 500, so as to result in a 20 micromolar solution.
Several exemplary compounds of the present invention were screened at 10 μg/ml in vitro, at varying Treg:T cell ratios, using standard cell proliferation techniques (3 days, using CSFE dyes). Such techniques are well understood by those skilled in the art. For example, see Akimova T, Ge G, Golovina T, Mikheeva T, Wang L, Riley J L, Hancock W W., “Histone/protein deacetylase inhibitors increase suppressive functions of human FOXP3+ Tregs,” Clin Immunol. 2010 September; 136(3):348-63; Tao R, Hancock W W., Resistance of FOXP3+ regulatory T cells to Nur77-induced apoptosis promotes allograft survival,” PLoS One. 2008 May 28; 3(5):e2321; Tao R, Wang L, Murphy K M, Fraser C C, Hancock W W., “Regulatory T cell expression of herpesvirus entry mediator suppresses the function of B and T lymphocyte attenuator-positive effector T cells.,” J. Immunol. 2008 May 15; 180(10):6649-55; and Tao R, de Zoeten E F, Ozkaynak E, Chen C, Wang L, Porrett P M, Li B, Turka L A, Olson E N, Greene M I, Wells A D, Hancock W W., “Deacetylase inhibition promotes the generation and function of regulatory T cells,” Nat. Med. 2007 November; 13(11):1299-307 for the protocols used herein. Each of these references is incorporated by reference herein, at least for this purpose.
T cell proliferation was unimpaired in the absence of Treg cells (see left panels in FIG. 8A-D), but was increasingly impaired at increasing Treg concentration (for example, in FIG. 8A, increasing Treg:Tcell ratio from 0:1 to 1:1 reduced proliferation from 88% to 37% under otherwise identical conditions). […] Efficacy was also seen at 1 μg/ml for some compounds.

FOXP3 = FOXP3 bound on chromatin in SZ-4 T cells (Western blot); assay type: cell-based; conditions: FIG. 9
[2] = test system: dextran sodium sulfate (DSS) colitis; experiment: DSS model of colitis, reversal of established colitis; assay type: in vivo, mice
Experimental: FIG. 12A-C are the results of experiments described in Example 5. […] FIG. 12C provide graphical data for weight loss, bleeding score, and stool consistency (i.e., higher score reflects higher levels of diarrhea), wherein the mice were first subjected to DSS irritation, then subset populations were remedially treated after 8 days with the compound having Structure B7.
In a first test, the effects of exposure to dextran sodium sulfate (DSS) were evaluated, which results in a partially CD4-dependent inflammatory model of colitis, in wildtype (WT) versus TIP60dn C57BL/6 mice (8 mice/group).
Data were also generated using the compound of Structure B7 in the DSS model, in an experiment designed to test the ability of TIP60 inhibitor therapy to reverse established colitis by waiting until mice had ˜15% weight loss. In marked contrast to use of carrier DMSO alone, TIP60 inhibitor therapy (2 mg/kg/d, i.p.) reversed weight loss (p<0.01), blood in the stool (p<0.01) and diarrhea (p<0.005) (see FIG. 12C) and maintained colon length (p<0.01).

TIP60 = target: T1, TIP60 (Homo sapiens, UniProt Q92993); experiment: TIP60 activity by acetylation of TIP60 or its substrate FOXP3 in transfected 293T cells (Ac-K immunoprecipitation, Western blot); assay type: cell-based; conditions: 4 hours
T1 construct: expressed in transfected cells; host or cells: 293T cells
Experimental: FIG. 11 illustrate the effect of B7G on TIP60. TIP60 activity was assessed by examining acetylation of TIP60 or its substrate FOXP3. Both TIP60 and FOXP3 were overexpressed in 293T cells. Acetylated proteins were first immunoprecipitated with the acetyl-lysine specific antibody Ac-K and then blotted with HRP conjugated antibodies to expression tags (HA for FOXP3 or FLAG for TIP60).
TIP60 is known to have acetyl transferase activity to acetylate itself (auto-acetylation) or substrates including FOXP3. To examine activity of B7G on TIP60, 293T cells were transfected with Flag-tagged TIP60 and HA-tagged FOXP3. 24 hours after transfection, cells were treated with various concentrations of B7G for 4 hours before cell lysates were collected. Acetylated proteins were precipitated by anti-acetyl lysine antibody Ac-K. FOXP3 and TIP60 in the lysate or precipitated by Ac-K antibody were identified by anti-HA-HRP and anti-FLAG-HRP respectively.

[3] = 2 mg/kg/d i.p., vs carrier DMSO, p<0.01

T1 sequence (Q92993 whole entry, species assumed): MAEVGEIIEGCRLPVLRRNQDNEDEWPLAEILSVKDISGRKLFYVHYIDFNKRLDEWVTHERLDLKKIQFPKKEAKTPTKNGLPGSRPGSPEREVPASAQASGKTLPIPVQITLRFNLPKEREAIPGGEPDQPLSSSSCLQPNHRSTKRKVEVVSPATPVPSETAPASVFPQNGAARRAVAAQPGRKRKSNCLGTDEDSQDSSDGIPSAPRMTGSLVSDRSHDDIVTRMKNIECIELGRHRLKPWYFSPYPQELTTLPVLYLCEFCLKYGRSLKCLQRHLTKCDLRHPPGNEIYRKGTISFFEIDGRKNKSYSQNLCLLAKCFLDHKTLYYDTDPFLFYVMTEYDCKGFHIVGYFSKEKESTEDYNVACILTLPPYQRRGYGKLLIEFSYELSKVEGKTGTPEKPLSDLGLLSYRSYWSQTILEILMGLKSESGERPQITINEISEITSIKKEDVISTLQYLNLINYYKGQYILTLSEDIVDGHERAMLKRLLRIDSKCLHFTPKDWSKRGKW

Structure (SMILES): Cc1ccc2cc(NC(=O)C3CC(=O)N(CCc4ccc(Cl)cc4)C3)ccc2n1 (stereo not drawn) [Compound B7C]
suppression of Treg in vitro [1]: enhancement | FOXP3 bound on chromatin (FOXP3): intervening with FOXP3 bound on chromatin

Structure (SMILES): Cc1ccc(NC(=O)C2CC(=O)N(CCc3ccc(Cl)cc3)C2)cc1 (stereo not drawn) [Compound B7]
suppression of Treg in vitro [1]: enhancement | Treg activity (decreasing T cell proliferation) ([1]; B7 2.5 to 10 μM, dose dependent): enhanced the Treg activity | T cell proliferation in the absence of Treg cells ([1]; Treg:T cell 0:1, FIG. 8A-D left panels): unimpaired | T cell proliferation (percentage of proliferated cells) ([1]; highest B7 dose 10 μM (FIG. 8B, 1000x dilution)): 25% | T cell proliferation (percentage of proliferated cells) ([1]; intermediate B7 dose (FIG. 8C, 4000x dilution of 10 mM)): 30% | T cell proliferation (percentage of proliferated cells) ([1]; lowest B7 dose (FIG. 8D, 8000x dilution of 10 mM; text: 2.5 μM)): 37% | weight loss ([2]; 2 mg/kg/d i.p., started at ~15% weight loss, vs carrier DMSO, p<0.01): reversed | diarrhea ([2]; 2 mg/kg/d i.p., vs carrier DMSO, p<0.005): reversed | blood in the stool [2, 3]: reversed | colon length [2, 3]: maintained | colon length relative to unstressed control animal ([2]; single animal, 3% DSS then B7): about 94% | spleen size relative to control ([2]; single animal, 3% DSS then B7): comparable in size to that of the control

Structure (SMILES): COc1ccc(NC(=O)C2CC(=O)N(CCc3ccc(Cl)cc3)C2)cc1 (stereo not drawn) [Compound B7B]
suppression of Treg in vitro [1]: enhancement

Structure (SMILES): O=C(Nc1ccc(Cl)cc1)C1CC(=O)N(CCc2ccc(Cl)cc2)C1 (stereo not drawn) [Compound B7A]
suppression of Treg in vitro [1]: enhancement

Acetylated FOXP3 (TIP60; 32 μg/ml): reduced significantly | Acetylated TIP60 (TIP60; 32 μg/ml): reduced significantly | TIP60 auto-acetylation (TIP60; lower concentration): slightly increase | TIP60 expression level in total cell lysate (TIP60; various concentrations, FLAG-HRP): not significantly affected | FOXP3 expression level in total cell lysate (TIP60; various concentrations, HA-HRP): not significantly affected
Structure (SMILES): COc1ccc(CCN2CC(C(=O)Nc3ccc(F)c(Cl)c3)CC2=O)cc1OC (stereo not drawn) [Compound B7G]
